Measured values published in US20230295201A1 (Gilead Sciences, Inc., priority 2020, published 2023).
Read-outs that look alike come from different tables or passages of the source.

Legend:
Format in all cases: cell-based
[1] = system: RSV strain A2; assay: RSV HEp-2 EC50 (infectious cytopathic cell protection assay); conditions: HEp-2 cells, RSV A2, 4 days, read-out: RSV HEp-2 EC50
Outline: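 HEp-2 cells mixed with titered RSV A2 at 50,000 cells/ml were added to plates holding 3-fold serial compound dilutions in DMSO, then incubated 4 days at 37° C. Cytoprotection was read as cell viability by CellTiter-Glo luminescence and converted to percent inhibition against 0% and 100% inhibition controls.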

[2] = system: DENV2 replicon; assay: DENV-2 Huh-7 Rep EC50 (replicon luminescence); conditions: read-out: DENV-2 Huh-7 Rep EC50
Outline: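 Huh-7 cells carrying a DENV2 replicon, 5,000 cells/well, were incubated with dosed compounds for 48 h at 37° C. EnduRen live-cell substrate was added 1.5 h before luminescence reading. EC50 came from dose-response against DMSO-only wells.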

[3] = system: Dengue serotype 2 New Guinea C (NGC) strain; assay: DENV-2 Huh-7 EC50 (qPCR in Huh7 cells)
Protocol: Huh7 (Human hepatocarcinoma 7) cells were maintained in 10% FCS-containing DMEM complete media. On the day of the assay, cells were trypsinized (0.1% Trypsin-EDTA), washed and infected for 2 hours in serum-free DMEM with Dengue serotype 2 New Guinea C (NGC) strain at MOI=0.1 with gentle agitation at 37° C. After 2 hours, cells were washed with serum-free media and suspended in 10% FCS-containing DMEM (Gibco, supplemented with sodium pyruvate, NEAA, Penicillin-Streptomycin). 10^5 cells were plated in triplicate in 96-well plates with compounds dispensed at graded doses (Hewlett-Packard D300 Digital Dispenser). All wells were normalized to 0.25% DMSO. At 48 hours, cells were washed with 1×PBS and all supernatants removed. Total RNA was extracted using RNEasy 96 plates (Qiagen) and used to generate first-strand cDNA using XLT cDNA 5×Supermix (QuantaBio). cDNA was used as a template in a Taqman qPCR duplex reaction specific to DENV2 viral and GAPDH gene expression. EC50 values were determined using Prism Graphpad software, with normalization to a positive control and no compound negative control wells.

[4] = system: RSV A2; assay: RSV NHBE EC50 (RSV A2 antiviral assay in normal human bronchial epithelial cells); conditions: NHBE cells, RSV A2, 4 days, read-out: RSV NHBE EC50
[5] = system: HRV16; assay: HRV16 HELA EC50 (cytopathic effect in H1-HeLa cells)
Outline: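 H1-HeLa cells seeded one day before, given 3-fold serial compound dilutions in triplicate just prior to infection with pre-titrated virus. Incubated 96 h at 33 °C/5% CO2; protection from cytopathic effect read as viability by CellTiter-Glo luminescence, normalised to infected untreated (0%) and uninfected (100%) controls.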

[6] = H1-HeLa cells, 96 h, 33° C.; read-out: HRV16 HELA EC50
[7] = human respiratory syncytial virus, HEp-2, 96 h
[8] = Dengue virus, DENV2, Huh-7, 48 h, Huh-7 replicon cells, 48 hours
[9] = Dengue virus, DENV2, Huh-7, 48 h
[10] = human respiratory syncytial virus, NHBE, 96 h
[11] = 96 h, H1-HeLa cells, 33° C., read-out: HRV16 HELA EC50
[12] = human respiratory syncytial virus, 96 h

Structure (SMILES)	EC50 [1] [nM]	EC50 ([2]; Huh-7 replicon cells, 48 hours) [nM]	EC50 ([3]; 48 hours) [nM]	EC50 [4] [nM]	EC50 [5, 6] [nM]	EC50 [1, 7] [nM]	EC50 [2, 8] [nM]	EC50 [3, 9] [nM]	EC50 [4, 10] [nM]	EC50 [5, 11] [nM]	further results
C[C@H](NP(=O)(OC[C@@]1(C#N)O[C@@H](c2ccc3c(N)ncnn23)[C@H](O)[C@@H]1O)Oc1ccccc1)C(=O)OCC1CC1 (single isomer, unassigned) [Example 10]	191	17900	2790	421	583	–	–	–	–	–	–
C[C@H](NP(=O)(OC[C@@]1(C#N)O[C@@H](c2ccc3c(N)ncnn23)[C@H](O)[C@@H]1O)Oc1ccccc1)C(=O)OCC1CC1 (single isomer, unassigned) [Example 9]	1010	> 50000	1460	97	324	–	–	–	–	–	–
COCCCOC(=O)[C@H](C)NP(=O)(OC[C@@]1(C#N)O[C@@H](c2ccc3c(N)ncnn23)[C@H](O)[C@@H]1O)Oc1ccccc1 (single isomer, unassigned) [Example 59]	–	56500	4650	111	–	–	–	–	–	–	–
C[C@H](NP(=O)(OC[C@@]1(C#N)O[C@@H](c2ccc3c(N)ncnn23)[C@H](O)[C@@H]1O)Oc1ccccc1)C(=O)OCc1ccccc1 (stereo partly drawn) [Example 37, benzyl ((((2R,3S,4R,5S)-5-(4-aminopyrrolo[2,1-f][1,2,4]triazin-7-yl)-2-cyano-3,4-dihydroxytetrahydrofuran-2-yl)methoxy) (phenoxy)phosphoryl)-L-alaninate]	–	–	–	–	–	136	6700	1510	129	329	–
CCOC(=O)[C@H](C)NP(=O)(OC[C@@]1(C#N)O[C@@H](c2ccc3c(N)ncnn23)[C@H](O)[C@@H]1O)Oc1ccc(C(C)(C)C)cc1 (mixture of isomers) [Example 263, Ethyl ((((2R,3S,4R,5S)-5-(4-aminopyrrolo[2,1-f][1,2,4]triazin-7-yl)-2-cyano-3,4-dihydroxytetrahydrofuran-2-yl)methoxy)(4-(tert-butyl)phenoxy)phosphoryl)-L-alaninate]	–	–	–	–	–	35	8030	569	–	–	–
C[C@H](NP(=O)(OC[C@@]1(C#N)O[C@@H](c2ccc3c(N)ncnn23)[C@H](O)[C@@H]1O)Oc1ccccc1)C(=O)OCC1(C)CC1 (stereo partly drawn) [Example 257, (1-methylcyclopropyl)methyl ((((2R,3S,4R,5S)-5-(4-aminopyrrolo[2,1-f][1,2,4]triazin-7-yl)-2-cyano-3,4-dihydroxytetrahydrofuran-2-yl)methoxy)(phenoxy)phosphoryl)-L-alaninate]	–	–	–	–	–	29	5480	2210	–	–	–
CC(NP(=O)(OCC1(C#N)OC(c2ccc3c(N)ncnn23)C(O)C1O)Oc1ccccc1)C(=O)OCC1CCC(C(F)(F)F)CC1 (single isomer, unassigned) [Example 27]	1300	82200	5680	18	3160	–	–	–	–	–	–
C[C@H](NP(=O)(OC[C@@]1(C#N)O[C@@H](c2ccc3c(N)ncnn23)[C@H](O)[C@@H]1O)Oc1ccccc1)C(=O)OCC(C)(C)C(F)(F)F (stereo partly drawn) [Example 260, 3,3,3-trifluoro-2,2-dimethylpropyl ((((2R,3S,4R,5S)-5-(4-aminopyrrolo[2,1-f][1,2,4]triazin-7-yl)-2-cyano-3,4-dihydroxytetrahydrofuran-2-yl)methoxy)(phenoxy)phosphoryl)-L-alaninate]	–	–	–	–	–	66	9950	682	–	–	–
C[C@H](N[P@@](=O)(OC[C@@]1(C#N)O[C@@H](c2ccc3c(N)ncnn23)[C@H](O)[C@@H]1O)Oc1ccccc1)C(=O)OCC1CCC1 [Example 119]	539	31100	4280	120	247	–	–	–	–	–	–
CC(C)(C)C(=O)OCCNP(=O)(OC[C@@]1(C#N)O[C@@H](c2ccc3c(N)ncnn23)[C@H](O)[C@@H]1O)Oc1ccccc1 (mixture of isomers) [Example 11, 2-(((((2R,3S,4R,5S)-5-(4-aminopyrrolo[2,1-f][1,2,4]triazin-7-yl)-2-cyano-3,4-dihydroxytetrahydrofuran-2-yl)methoxy)(phenoxy)phosphoryl)amino)ethyl pivalate]	–	–	–	–	–	269	> 50000	3500	54	1200	–
CCOC(=O)[C@H](C)NP(=O)(OC[C@@]1(C#N)O[C@@H](c2ccc3c(N)ncnn23)[C@H](O)[C@@H]1O)Oc1ccc(C(C)(C)C)cc1 (single isomer, unassigned) [Example 265]	215	–	–	–	–	–	–	390	–	–	–
C[C@H](NP(=O)(OC[C@@]1(C#N)O[C@@H](c2ccc3c(N)ncnn23)[C@H](O)[C@@H]1O)Oc1ccccc1)C(=O)OC1CCCCCC1 (single isomer, unassigned) [Example 135]	233	–	–	–	–	–	–	1390	66	–	–
C[C@H](N[P@](=O)(OC[C@@]1(C#N)O[C@@H](c2ccc3c(N)ncnn23)[C@H](O)[C@@H]1O)Oc1ccccc1)C(=O)OCC1CCC1 [Example 120]	101	7460	798	104	295	–	–	–	–	–	–
CCC(CC)COC(=O)[C@@H](NP(=O)(OC[C@@]1(C#N)O[C@@H](c2ccc3c(N)ncnn23)[C@H](O)[C@@H]1O)Oc1ccccc1)C1CCCCC1 (stereo partly drawn) [Example 116, (2S)-2-ethylbutyl 2-(((((2R,3S,4R,5S)-5-(4-aminopyrrolo[2,1-f][1,2,4]triazin-7-yl)-2-cyano-3,4-dihydroxytetrahydrofuran-2-yl)methoxy)(phenoxy)phosphoryl)amino)-2-cyclohexylacetate]	–	–	–	–	–	> 100000	11700	–	> 5000	> 31900	–
CC(C)OC(=O)[C@H](C)NP(=O)(N[C@@H](C)C(=O)OC(C)C)OC[C@@]1(C#N)O[C@@H](c2ccc3c(N)ncnn23)[C@H](O)[C@@H]1O [Example 34]	–	–	–	–	> 50000	–	–	–	–	–	EC50 [1, 12]: 14000 nM; EC50 [2, 9]: > 50000 nM; EC50 [4, 12]: 2840 nM
C[C@H](NP(=O)(OC[C@@]1(C#N)O[C@@H](c2ccc3c(N)ncnn23)[C@H](O)[C@@H]1O)Oc1ccccc1)C(=O)O[C@H]1CC[C@H](N)CC1 (stereo partly drawn) [Example 33, (1r,4S)-4-aminocyclohexyl ((((2R,3S,4R,5S)-5-(4-aminopyrrolo[2,1-f][1,2,4]triazin-7-yl)-2-cyano-3,4-dihydroxytetrahydrofuran-2-yl)methoxy)(phenoxy)phosphoryl)-L-alaninate]	–	–	–	–	–	1910	> 50000	–	2680	27000	–
CC(C)[C@H](N)C(=O)OCCNP(=O)(OC[C@@]1(C#N)O[C@@H](c2ccc3c(N)ncnn23)[C@H](O)[C@@H]1O)Oc1ccccc1 (stereo partly drawn) [Example 131, (2S)-2-(((((2R,3S,4R,5S)-5-(4-aminopyrrolo[2,1-f][1,2,4]triazin-7-yl)-2-cyano-3,4-dihydroxytetrahydrofuran-2-yl)methoxy)(phenoxy)phosphoryl)amino)ethyl 2-amino-3-methylbutanoate]	–	–	–	–	–	315	> 50000	–	636	1810	–
COCCOP(=O)(N[C@@H](C)C(=O)OC(C)C)OC[C@@]1(C#N)O[C@@H](c2ccc3c(N)ncnn23)[C@H](O)[C@@H]1O (stereo partly drawn) [Example 41, isopropyl ((((2R,3S,4R,5S)-5-(4-aminopyrrolo[2,1-f][1,2,4]triazin-7-yl)-2-cyano-3,4-dihydroxytetrahydrofuran-2-yl)methoxy)(2-methoxyethoxy)phosphoryl)-L-alaninate]	–	–	–	–	> 50000	–	–	–	–	–	EC50 [1, 12]: > 50000 nM; EC50 [2, 9]: > 50000 nM; EC50 [4, 12]: ≥ 5000 nM
CCN1CCC(OC(=O)[C@H](C)NP(=O)(OC[C@@]2(C#N)O[C@@H](c3ccc4c(N)ncnn34)[C@H](O)[C@@H]2O)Oc2ccccc2)C(F)(F)C1 (stereo partly drawn) [Example 32, 1-ethyl-3,3-difluoropiperidin-4-yl ((((2R,3S,4R,5S)-5-(4-aminopyrrolo[2,1-f][1,2,4]triazin-7-yl)-2-cyano-3,4-dihydroxytetrahydrofuran-2-yl)methoxy)(phenoxy)phosphoryl)-L-alaninate]	–	–	–	–	–	3440	> 100000	–	> 3120	9950	–
